Experimental findings from patent publication US20140377289A1, “Metallodrugs Having Improved Pharmacological Properties, and Methods of Manufacture and Use Thereof” (MetalloPharm, LLC, priority 2011, published 2014) are described below.

Data set [1] deals with HCV RNA replicon in ET (luc-ubi-neo/ET) Huh7 cells. Conditions: read-out: antiviral IC50; 72 h, replicon-derived Luc activity. For orientation: A replicon is a self-replicating genome or part of one, used to study replication in cells.
Data set [2] has as its system ET (luc-ubi-neo/ET) Huh7 human hepatoma cell line. Conditions: read-out: cytotoxicity TC50; 72 h, CytoTox-1 colorimetric assay.
Another data set concerns pUC19 plasmid DNA. Nature of the data set: DNA nicking and linearization nuclease assay. It is filed as biochemical. Conditions: 10 μM base pairs pUC19; ascorbate/peroxide; — = Below detection limit.
Another data set deals with S. aureus sortase A (Staphylococcus aureus, UniProt Q2FV99). The class given is biochemical. Conditions: for activity for catalyst concentration of 1 μM: catalyst concentration 1 μM. The procedure:
Apparent binding affinities and rates of inactivation for S. aureus sortase A by several metallopeptide derivatives were evaluated. […]

The target in data set [3] is stem-loop IIb of HCV IRES RNA. The class given is binding, hepatitis C virus (HCV). Here is the method: RNA was purchased from Dharmacon, part of Thermo Fisher Scientific (Lafayette, Colo.). Peptides were purchased from Genemed Synthesis Inc (South San Francisco, Calif.) with C-terminal amidation. The stem-loop (SL) structure (from Lytle et al., RNA 13: 539-48, 2002) is depicted in FIG. 6. The sequence for the IRES SL IIb RNA used was 5′-Fluorescein-[…]-3′, and for the IRES SL IV RNA was 5′-Fluorescein-[…]-3′. All RNA was annealed by heating to 95° C. and then cooled slowly to room temperature before use.
RNA binding experiments were performed in the presence of 84 nM GGHYrFK-amide in 20 mM HEPES (pH 7.4), 100 mM NaCl. For GGHYrFK-amide, serial additions of unlabeled IRES RNA were added and tyrosine emission was monitored (λex=280 nm, λem=313 nm). Binding data for GGHYr[…]-amide and GGHYr[…]-amide were obtained by adding serial additions of peptide to 5′-fluorescein labeled IRES SLIIb and monitoring at 518 nm (Ex=485 nm). Data was then fit to a one-site binding model.

Data set [4] has as its system stem loop IIb HCV IRES RNA. The class given is biochemical, hepatitis C virus (HCV). Here is the method: HCV IRES RNA cleavage was monitored in vitro by fluorescence using 5′ fluorescein end-labeled RNA with excitation and emission wavelengths of 485 nm and 518 nm, respectively. Reactions were carried out in reaction volumes of 100 μl in the presence of 1 mM ascorbate and 1 mM H2O2 in 20 mM HEPES buffer (pH=7.4), 100 mM NaCl with 100 nM of the catalyst and analyzed according to the change in fluorescence observed as the reaction occurred. Both a time-dependence and a concentration-dependence of RNA substrate were observed. The initial velocities were fit to a line using Origin 7.0 software and kobs obtained. These values were then used to obtain the Michaelis-Menten parameters.
The reactivity of select catalytic metallodrugs was investigated by Michaelis-Menten profiles. Reaction chemistry was followed by monitoring the fluorescence change of 5′-fluorescein-labeled RNA as a function of time. Initial velocities were measured as a function of substrate (RNA) concentration to generate a standard Michaelis-Menten plot (FIG. 2).

The next data set addresses HCV protease (Hepatitis C virus genotype 1a, UniProt P27958). Nature of the data set: biochemical. It is filed as binding. From the text:
This stems from the relationship between affinity and the on/off rate constants for binding (KA=kon/koff), where higher affinity binding is promoted by larger kon and/or smaller koff values. By contrast, efficient catalytic turnover requires koff values that are preferably no smaller than the rate constant for the inactivation chemistry (kcat), to ensure the availability of metallodrug catalyst for new target molecules, and will be best promoted by relatively high values for both kon and koff, which will result in weaker KA values.
Apparent binding affinities and rates of inactivation for HCV protease by several metallopeptide derivatives incorporating a Cu-GGH metal binding domain and C-terminal HCV protease targeting peptides were prepared and their affinity and reactivity were evaluated under in the presence of various redox reagents. Affinities lay within the range of 10^4M^−1 and 5×10^8 M^−1.

Where [5] appears, read: Michaelis-Menten, stem-loop IIb RNA as substrate.

Where a SMILES comes first, the peptide text is derived from it. [ ]: non-standard residue; d: D form. Cha = N[C@@H](CC1CCCCC1)C(=O)O

Sequence of HCV protease (P27958 1027-1208, other chains not shown): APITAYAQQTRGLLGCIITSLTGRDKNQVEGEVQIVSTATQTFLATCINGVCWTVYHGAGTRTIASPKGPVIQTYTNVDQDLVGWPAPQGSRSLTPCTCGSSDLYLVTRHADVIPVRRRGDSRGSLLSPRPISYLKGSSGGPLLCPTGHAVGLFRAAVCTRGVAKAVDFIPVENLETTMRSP
Sequence of S. aureus sortase A (Q2FV99 whole entry): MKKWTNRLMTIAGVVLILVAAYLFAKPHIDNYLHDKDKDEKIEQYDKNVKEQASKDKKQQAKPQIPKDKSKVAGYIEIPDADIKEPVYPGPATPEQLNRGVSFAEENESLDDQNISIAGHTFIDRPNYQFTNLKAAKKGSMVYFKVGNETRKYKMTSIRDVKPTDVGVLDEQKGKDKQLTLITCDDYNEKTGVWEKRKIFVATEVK

Usually IC50 stands for the concentration that gives 50% inhibition. Consider Cu-GGHGAALEAKICHQIEYYFGDF, for which the IC50 in data set [1] was 6.25 µM. Also, in data set [2], the CC50 stood at 52 µM.
For Cu-GGHGYrFK the same measures were 1.38 µM and more than 100 µM.
Regarding `O=C(O)CN(CCN(CC(=O)O)CC(=O)O)CC(=O)O.[Ni]` [Ni-EDTA], in the data set on pUC19 plasmid DNA, the “klin for DNA linearization, without attached Rev (M-chelate)” value was determined as 0.00019 ± 0.00002 min⁻¹ and the “knick for DNA nicking, without attached Rev (M-chelate)” value is 0.037 ± 0.002 min⁻¹.
As for Cu-GGHLPETG, on S. aureus sortase A, the IC50 is more than 100 µM and the “activity for catalyst concentration of 1 μM” value (shortened to “activity”) was 0.017.
In the case of Cu-GGHYrFKGGGYGRKKRRQRRR, the IC50 in data set [1] stood at 1.85 µM. Also, the CC50 in data set [2] stood at 84 µM.
For orientation: Kd means the constant that tells how readily two partners part at equilibrium. Usually Km stands for the substrate concentration at which the rate is half of its maximum. Broadly, the kcat is the number of substrate molecules converted per active site and unit of time at saturation. In turn, “Cu complex of ATCUN peptide GGHYrFK, C-terminal amidated; targets stem-loop IIb of HCV IRES RNA [Cu-GGHYrFK-amide]” came in with a Kd in data set [3] (change in tyrosine emission at 313 nm) of 0.044 ± 0.002 µM. This compound also registered a KA in data set [3] (stem-loop IIb) of 2.27e+07 M⁻¹. In data set [4] (setting [5]), the Michaelis constant (Km) was 0.85 µM and the catalytic constant (kcat) was 0.00883 s⁻¹. Moreover, in data set [4] (cleavage of stem-loop IIb, 100 nM catalyst, 1 mM ascorbate, 1 mM H2O2), the Vmax is 1.71 RFU/min. The same compound gave a turnover number in data set [4] (stem-loop IIb RNA as substrate) of 32. The IC50 in data set [1] stood at 0.58 µM. Besides, the CC50 in data set [2] is more than 100 µM.
Turning to Cu-GGHAALEAKICHQIEYYFGDF, the IC50 in data set [1] is 3.46 µM. The CC50 in data set [2] was 41.1 µM.
Taken in the same sequence, the figures for Cu-GGHGYrFKGGGYGRKKRRQRRR were 0.95 µM and 96 µM.
In the case of Cu-GGHGLPETG, on S. aureus sortase A, the IC50 is more than 100 µM and the “activity” value was found to be 0.012.
As to `O=C([O-])CN(CC(=O)[O-])CC(=O)[O-].[Fe+3]` [Fe-NTA], in the data set on pUC19 plasmid DNA, the “klin for DNA linearization, without attached Rev (M-chelate)” value was found to be 0.0008 ± 0.0002 min⁻¹ and the “knick for DNA nicking, without attached Rev (M-chelate)” value amounted to 0.05 ± 0.01 min⁻¹.
Take Cu-GGHGKYKETDLLILFKDDYFAKKNEERK: in data set [1], the IC50 turned out to be 0.55 µM. For the same compound, in data set [2], the CC50 was more than 100 µM.
Taken in the same sequence, the figures for Cu-GGHGYrFKGGGKDEL were 0.91 µM and more than 100 µM.
As for Cu-GGHGKYKETDLLILFKDDYFAKKNEERKKDEL, the IC50 in data set [1] stood at 0.75 µM. Besides, the CC50 in data set [2] was more than 50 µM.
The term Ki denotes a dissociation constant, usually derived from enzyme kinetics or from competition with a known ligand. A high value points to weaker binding. On HCV protease, `CC[C@H](C)[C@H](NC(=O)[C@H](CC(C)C)NC(=O)[C@@H](CCC(=O)O)NC(=O)[C@H](CC(=O)O)NC(=O)CNC(=O)[C@H](Cc1c[nH]cn1)NC(=O)CNC(=O)CN)C(=O)N[C@@H](CC1CCCCC1)C(=O)N[C@@H](CS)C(=O)O` [Cu-GGHGDeLI(Cha)C—CO2^−] (H-GGHGD[dE]LI[Cha]C-OH) showed a dissociation constant (Kd) of 0.5 µM and a Ki of approximately 0.5 µM. Besides, the KA on HCV protease (apparent binding affinity) is approximately 2e+06 M⁻¹.
Regarding Cu-GGHGLPET, at S. aureus sortase A, the IC50 was more than 100 µM and the “activity” value worked out at 0.027.
As to “Cu-GGHKYKETDLLILFKDDYFAKKNEERKYGRKKRRQRRR”, in data set [1], the IC50 was determined as 0.83 µM. In addition, the CC50 in data set [2] is more than 50 µM.
